These results are taken from patent US5811512A, “Non-peptide peptidomimetics and related cyclic hexapeptides” (The Trustees of the University of Pennsylvania, priority 1996, dated 1998).

Where a SMILES comes first, the peptide text is derived from it. [ ]: non-standard residue; d: D form. Phe(4-F) = N[C@@H](Cc1ccc(F)cc1)C(=O)O; 1Nal = N[C@@H](Cc1cccc2ccccc12)C(=O)O; d(hPhe) = N[C@H](CCc1ccccc1)C(=O)O; Cha = N[C@@H](CC1CCCCC1)C(=O)O

Assay [1] addresses T1, human neurokinin-1 receptor (NK1R) (Homo sapiens, UniProt P25103).
T1 construct: the cDNA for the human NK1R was cloned into the expression vector pCDM9; expressed in transfected cells; host or cells: COS cells (transient, electroporation, vector pCDM9)
Description: Substance P receptor binding: 125I-substance P displacement from human NK1R expressed in COS cells. Conditions: for IC50: 125I-SP, COS cells expressing human NK1R, read-out: IC50 (concentration required to inhibit the binding of substance P to the human neurokinin-1 receptor by 50%). How it is done: The affinity of a variety of compounds for the substance P receptor was determined employing the following procedure.
A. Receptor Expression in COS
To express the cloned human neurokinin-1 receptor (NK1R) transiently in COS, the cDNA for the human NK1R was cloned into the expression vector pCDM9 which was derived from pCDM8 (Invitrogen) by inserting the ampicillin resistance gene (nucleotide 1973 to 2964 from Bluescript SK+) into the Sac II site. Transfection of 20 μg of the plasmid DNA into 10 million COS cells was achieved by electroporation in 800 μl of the transfection buffer ([…], 1.2 mM MgCl2, 2.4 mM K2 HPO4, 0.6 mM KH2 PO4, 10 nM glucose, 10 mM HEPES pH 7.4) at 260V and 950 μF using the IBI Genezapper (IBI, New Haven, Conn.). The cells were incubated in 10% fetal calf serum, 2 mM glutamine, 100 U/ml penicillin-streptomycin, and 90% DMEM media (Gibco, Grand Island, N.Y.) in 5% CO2 at 37° C. for three days before the binding assay.
B. Assay Protocol using COS
The binding assay of human NK1R expressed in COS cells is based on the use of ^125 I-substance P (^125 I-SP, from DuPont, Boston, Mass.) as a radioactively labeled ligand which competes with unlabeled substance P or any other ligand for binding to the human NK1R. Monolayer cell cultures of COS were dissociated by the non-enzymatic solution (Specialty Media, Lavallette, N.J.) and resuspended in appropriate volume of the bind buffer (50 mM Tris pH 7.5, 5 mM MnCl2, 150 mM NaCl, 0.04 mg/ml bacitracin, 0.004 mg/ml leupeptin, 0.2 mg/ml BSA, 0.01 mM phosphoramidon) such that 200 μl of the cell suspension would give rise to about 10,000 cpm of specific ^125 I-SP binding (approximately 50,000 to 200,000 cells). In the binding assay, 200 μl of cells were added to a tube containing 20 μl of 1.5 to 2.5 nM of ^125 I-SP and 20 μl of unlabeled substance P or any other test compound. The tubes were incubated at 4° C. or at room temperature for 1 hour with gentle shaking. The bound radioactivity was separated from unbound radioactivity by GF/C filter (Brandel, Gaithersburg, Md.) which was pre-wetted with 0.1 polyethylenimine. The filter was washed with 3 ml of wash buffer (50 Tris pH 7.5, 5 mM MnCl21 150 mM NaCl) three times and its radioactivity was determined by gamma counter.
A variety of compounds were tested according to the COS cell procedure. The concentration of compound required to inhibit the binding of substance P to the human neurokinin-1 receptor by 50% was measured.

The subject of another assay is β-adrenergic receptor. As to the kind of experiment: Radioligand displacement from AtT-20 and brain cells, β-adrenergic receptor. The class given is binding. For orientation: Displacement assays read how much labelled ligand stays bound in the presence of the test substance.
Another assay relates to SRIF receptor. As to the kind of experiment: SRIF receptor affinity: displacement of 125I-CGP-23996 from AtT-20 cells. The class given is binding. The procedure:
The affinity of a variety of compounds for the SRIF receptor was determined by studying the displacement of ^125 I-CGP-23996 from AtT-20 cells using the method generally in accordance with Raynor and Reisine, Journal of Pharmacology and Experimental Therapeutics, 1989, 251;2, 510.

The mark [2] stands for this setting: displacement of 125I-CGP-23996, AtT-20 cells.

T1 sequence (P25103 whole entry): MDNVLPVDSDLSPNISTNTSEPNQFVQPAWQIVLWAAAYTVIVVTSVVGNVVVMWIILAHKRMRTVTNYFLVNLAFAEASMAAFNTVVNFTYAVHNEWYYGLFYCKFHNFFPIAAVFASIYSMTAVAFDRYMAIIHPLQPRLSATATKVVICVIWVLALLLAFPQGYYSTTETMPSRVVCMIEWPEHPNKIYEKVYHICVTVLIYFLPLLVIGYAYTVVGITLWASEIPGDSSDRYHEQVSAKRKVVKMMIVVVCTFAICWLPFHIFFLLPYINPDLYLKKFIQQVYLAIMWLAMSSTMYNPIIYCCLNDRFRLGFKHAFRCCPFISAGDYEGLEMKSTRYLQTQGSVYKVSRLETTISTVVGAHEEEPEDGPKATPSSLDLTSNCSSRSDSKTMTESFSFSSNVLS

In the assay on HIV-1 protease, `CC(C)C[C@@H]1NC(=O)[C@@H](Cc2c[nH]c3ccccc23)NC(=O)[C@H](Cc2ccccc2)NC(=O)[C@@H]2CCCN2C(=O)[C@H](Cc2ccccc2)NC(=O)[C@H]([C@@H](C)O)NC1=O` [(17a), Cyclo (Phe-D-Trp-Leu-Thr-Phe-Pro)] (cyclo(FPF[dW]LT)) gave an IC50 of 3420 nM. In the assay with HIV-1 protease, `C[C@@H](O)[C@@H]1NC(=O)[C@H](Cc2ccccc2)NC(=O)[C@@H](Cc2c[nH]c3ccccc23)NC(=O)[C@H](Cc2ccccc2)NC(=O)[C@@H]2CCCN2C(=O)[C@H](Cc2ccccc2)NC1=O` [(17b), Cyclo (Phe-D-Trp-Phe-Thr-Phe-Pro)] (cyclo(FPF[dW]FT)) came in with an IC50 of 330 nM. Consider `C[C@@H](O)[C@@H]1NC(=O)[C@H](Cc2ccc(O)cc2)NC(=O)[C@@H](Cc2c[nH]c3ccccc23)NC(=O)[C@H](Cc2ccccc2)NC(=O)[C@@H]2CCCN2C(=O)[C@H](Cc2ccccc2)NC1=O` [(17c), Cyclo (Phe-D-Trp-Tyr-Thr-Phe-Pro)] (cyclo(FPF[dW]YT)), for which the IC50 with HIV-1 protease worked out at 2150 nM.

With `C[C@@H]1NC(=O)[C@@H](Cc2c[nH]c3ccccc23)NC(=O)[C@H](Cc2ccccc2)NC(=O)[C@@H]2CCCN2C(=O)[C@H](Cc2ccccc2)NC(=O)[C@H]([C@@H](C)O)NC1=O` [(17d), Cyclo (Phe-D-Trp-Ala-Thr-Phe-Pro)] (cyclo(ATFPF[dW])), the IC50 in the assay on HIV-1 protease turned out to be 9000 nM. Consider `COc1ccc(C[C@@H]2NC(=O)[C@@H](Cc3c[nH]c4ccccc34)NC(=O)[C@H](Cc3ccccc3)NC(=O)[C@@H]3CCCN3C(=O)[C@H](Cc3ccccc3)NC(=O)[C@H]([C@@H](C)O)NC2=O)cc1` [(17e), Cyclo (Phe-D-Trp-p-MeO-Phe-Thr-Phe-Pro)] (cyclo(FPF[dW]Y(Me)T)), for which the IC50 with HIV-1 protease stood at 130 nM. The same measure, in the same setting: under `C[C@@H](O)[C@@H]1NC(=O)[C@H](Cc2ccc(F)cc2)NC(=O)[C@@H](Cc2c[nH]c3ccccc23)NC(=O)[C@H](Cc2ccccc2)NC(=O)[C@@H]2CCCN2C(=O)[C@H](Cc2ccccc2)NC1=O` [(17f), Cyclo (Phe-D-Trp-p-F-Phe-Thr-Phe-Pro)] (cyclo(FPF[dW][Phe(4-F)]T)) stands 37 nM; under `C[C@@H](O)[C@@H]1NC(=O)[C@H](Cc2ccccc2)NC(=O)[C@@H](Cc2c[nH]c3ccccc23)NC(=O)[C@H](CO)NC(=O)[C@@H]2CCCN2C(=O)[C@H](Cc2ccccc2)NC1=O` [(18a), Cyclo (Ser-D-Trp-Phe-Thr-Phe-Pro)] (cyclo(FPS[dW]FT)), 2210 nM; under `C[C@@H](O)[C@@H]1NC(=O)[C@H](Cc2ccccc2)NC(=O)[C@@H](Cc2c[nH]c3ccccc23)NC(=O)[C@H](CC(=O)O)NC(=O)[C@@H]2CCCN2C(=O)[C@H](Cc2ccccc2)NC1=O` [(18b), Cyclo (Asp-D-Trp-Phe-Thr-Phe-Pro)] (cyclo(D[dW]FTFP)), 4020 nM. In the case of `C[C@@H](O)[C@@H]1NC(=O)[C@H](Cc2ccccc2)NC(=O)[C@@H](Cc2c[nH]c3ccccc23)NC(=O)[C@H]2CCCN2C(=O)[C@@H]2CCCN2C(=O)[C@H](Cc2ccccc2)NC1=O` [(18c), Cyclo (D-Pro-D-Trp-Phe-Thr-Phe-Pro)] (cyclo(FP[dP][dW]FT)), the IC50 in the assay with HIV-1 protease came to 51 nM. The same measure, in the same setting: under `C[C@@H]1NC(=O)[C@@H]2CCCN2C(=O)[C@H](Cc2ccccc2)NC(=O)[C@H]([C@@H](C)O)NC(=O)[C@H](Cc2ccccc2)NC(=O)[C@@H](Cc2c[nH]c3ccccc23)NC1=O` [(18d), Cyclo (Ala-D-Trp-Phe-Thr-Phe-Pro)] (cyclo(A[dW]FTFP)) stands 2200 nM. In the assay on HIV-1 protease, `C[C@@H](O)[C@@H]1NC(=O)[C@H](Cc2ccccc2)NC(=O)[C@@H](Cc2c[nH]c3ccccc23)NC(=O)[C@H](Cc2c[nH]c3ccccc23)NC(=O)[C@@H]2CCCN2C(=O)[C@H](Cc2ccccc2)NC1=O` [(18e), Cyclo (Trp-D-Trp-Phe-Thr-Phe-Pro)] (cyclo(FPW[dW]FT)) returned an IC50 of 73 nM. In the assay with HIV-1 protease, `C[C@@H](O)[C@@H]1NC(=O)[C@H](Cc2ccccc2)NC(=O)[C@@H](Cc2c[nH]c3ccccc23)NC(=O)[C@@H](Cc2ccccc2)NC(=O)[C@@H]2CCCN2C(=O)[C@H](Cc2ccccc2)NC1=O` [(18f), Cyclo (D-Phe-D-Trp-Phe-Thr-Phe-Pro)] (cyclo(FP[dF][dW]FT)) yielded an IC50 of 1120 nM. Turning to `C[C@@H](O)[C@@H]1NC(=O)[C@H](Cc2ccccc2)NC(=O)[C@@H](Cc2c[nH]c3ccccc23)NC(=O)[C@@H](CCc2ccccc2)NC(=O)[C@@H]2CCCN2C(=O)[C@H](Cc2ccccc2)NC1=O` [(18g), Cyclo (D-Homo-Phe-D-Trp-Phe-Thr-Phe-Pro)] (cyclo(FP[d(hPhe)][dW]FT)), the IC50 in the assay with HIV-1 protease stood at 161 nM.

In the assay with HIV-1 protease, `C[C@@H](O)[C@@H]1NC(=O)[C@H](Cc2ccccc2)NC(=O)[C@@H](Cc2c[nH]c3ccccc23)NC(=O)[C@H](CC2CCCCC2)NC(=O)[C@@H]2CCCN2C(=O)[C@H](Cc2ccccc2)NC1=O` [(18h), Cyclo (Cha-D-Trp-Phe-Thr-Phe-Pro)] (cyclo([Cha][dW]FTFP)) yielded an IC50 of 700 nM. In the assay on HIV-1 protease, `C[C@@H](O)[C@@H]1NC(=O)[C@H](Cc2ccccc2)NC(=O)[C@@H](Cc2c[nH]c3ccccc23)NC(=O)[C@H](Cc2cccc3ccccc23)NC(=O)[C@@H]2CCCN2C(=O)[C@H](Cc2ccccc2)NC1=O` [(18i), Cyclo (Nal-D-Trp-Phe-Thr-Phe-Pro)] (cyclo([1Nal][dW]FTFP)) came in with an IC50 of 22 nM. On to `CC(=O)NCCCCCOC[C@H]1O[C@@H](OCCc2cn(S(=O)(=O)c3ccccc3)c3ccccc23)[C@H](OCc2ccccc2)[C@@H](OCc2ccccc2)[C@@H]1OCc1ccccc1` [Compound 7, 2-(1-Phenylsulfonyl-indol-3yl)ethyl-6-O-(5-acetamidopentyl)-2,3,4-tri-O-benzyl-β-D-glucopyranoside], for which the IC50 in assay [1] came out at 56 nM. On to `CO[C@@H]1O[C@H](COCCCCCN)[C@@H](OCc2ccccc2)[C@H](OCc2ccccc2)[C@H]1OCc1ccccc1` [Compound 8, Methyl 6-O-(5-aminopentyl)-2,3,4-tri-O-benzyl-β-D-glucopyranoside], for which the “binding to β-adrenergic receptor” value in the assay on β-adrenergic receptor is “does not bind”. In addition, the “Binding Inhibition” value in the assay with β-adrenergic receptor (125I-CYP (0.1 nM), AtT-20) worked out at 0%. In addition, the “binding to SRIF receptor” value in the assay with SRIF receptor is on record as “is bound by”. The IC50 in the assay on SRIF receptor (setting [2]) is 40000 nM; in assay [1], 840 nM. In addition, the “binding to substance P receptor” value in assay [1] is given as “is bound by”. Turning to `OC[C@@H]1C[C@H](OCc2ccccc2)[C@@H](OCc2ccccc2)[C@H](OCCc2c[nH]c3ccccc23)O1` [Compound 11, 2-Indol-3-yl-ethyl-2,3,-di-O-benzyl-4-deoxy-β-D-glucopyranoside], the IC50 in assay [1] was determined as 400 nM. Consider `CO[C@@H]1O[C@H](COCCCCCNC(=O)C(F)(F)F)[C@@H](OCc2ccccc2)[C@H](OCc2ccccc2)[C@H]1OCc1ccccc1` [Compound 13, Methyl 2,3,4-tri-O-benzyl-6-O-(N-trifluoroacetyl-5-aminopentyl)-β-D-glucopyranoside], for which, in the assay with SRIF receptor (setting [2]), the “IC50 (affinity for the SRIF receptor)” value was “does not bind”. Besides, the IC50 in assay [1] was 1000 nM. In the case of `C[C@@H](O)[C@@H]1NC(=O)[C@H](Cc2ccc(F)cc2)NC(=O)[C@@H](Cc2c[nH]c3ccccc23)NC(=O)[C@H](Cc2cccc3ccccc23)NC(=O)[C@@H]2CCCN2C(=O)[C@H](Cc2ccccc2)NC1=O` [Compound (19), Cyclo (Nal-D-Trp-p-F-Phe-Thr-Phe-Pro)] (cyclo([1Nal][dW][Phe(4-F)]TFP)), the IC50 with HIV-1 protease is 2.8 nM.

In the case of `C[C@@H](O)[C@@H]1NC(=O)[C@H](CCCCN)NC(=O)[C@@H](Cc2c[nH]c3ccccc23)NC(=O)[C@H](Cc2ccccc2)NC(=O)[C@@H]2CCCN2C(=O)[C@H](Cc2ccccc2)NC1=O` [L-363,301, reference compound] (cyclo(PF[dW]KTF)), the IC50 in the assay with SRIF receptor (setting [2]) was 18.7 nM.

In turn, `CC(C)[C@@H]1NC(=O)[C@H](CCCCN)NC(=O)[C@@H](Cc2c[nH]c3ccccc23)NC(=O)[C@H](Cc2ccc(O)cc2)NC(=O)[C@H](C)N(C)C(=O)[C@H](Cc2ccccc2)NC1=O` [MK 678, reference compound] came in with an IC50 in the assay with SRIF receptor (setting [2]) of 60 nM.
